From US9238637B2, “Stable polymorphic forms of compound as hypoxia mimetics, and uses thereof” (BEIJING BETTA PHARMACEUTICALS CO., LTD, priority 2011, dated 2016)
pIC50: −log10 of the molar value.

Key:
full length PHD2 = biological target: T1, full length PHD2 (Homo sapiens, UniProt Q9GZT9); experiment: Assay of HIF-PHD2 enzyme activity (homogeneous TR-FRET); type: biochemical; settings: 600 nM full length PHD2, 0.2 μM 2-oxoglutarate, 0.5 μM HIF-1α peptide, 2 hrs room temperature
T1 construct: containing 600 nM full length PHD2
Method: HIF-PHD2 activity was measured using homogeneous TR-FRET technology (see also, US2008/004817; Dao J H et al., Anal Biochem. 2009, 384:213-23). To each well of a ½Area 96-well plate was added 2 μL DMSO solution of test compound and 40 μL of assay buffer (50 mM Tris PH7.4/0.01% Tween-20/0.1 mg/ml BSA/1 mM Sodium ascorbate/20 μg/ml Catalase/10 μM FeSO4) containing 600 nM full length PHD2. After a 30 min preincubation at room temperature, the enzymatic reactions were initiated by the addition of 8 μL of substrates (final concentrations of 0.2 μM 2-oxoglutarate and 0.5 μM HIF-1α peptide biotinyl-DLDLEMLAPYIPMDDDFQL). After 2 hrs. at room temperature, the reactions were terminated and signals were developed by the addition of a 50 μL quench/detection mix to a final concentration of 1 mM ortho-phenanthroline, 0.1 mM EDTA, 0.5 nM anti-(His)6LANCE reagent, 100 nM AF647-labeled Streptavidin, and 30 nM (His)6-VHL-elonginB-elonginC complex. The ratio of time resolved fluorescence signals at 665 and 620 nm was determined, and percent inhibition was calculated relative to an uninhibited control sample run in parallel.

Erythropoietin (EPO) = experiment: Determination of erythropoietin (EPO) induction in normal mice; type: in vivo; settings: male C57BL/6 mice, oral suspension in 0.5% CMC, 60 mg/kg, serum 6 hours after dosing
Method: Eight-week-old male C57BL/6 mice were dosed orally with a suspension of one crystal form of the compound in 0.5% CMC at 20, 60 and 100 mg/kg. Blood samples were obtained from the orbital venous plexus 6 hours after dosing and serum was collected (see also, Robinson A, et al., Gastroenterology. 2008, 134:145-55; Hsieh M M, et al., Blood. 2007, 110:2140-7). Samples were analyzed for EPO by electrochemiluminescence-based immunoassay (MSD) according to manufacturer's instructions. The inducted EPO when the Crystalline Form III in this invention was used in suspension was determined to be above 35 folds over that of the vehicle group without induction at the dosage of 60 mg/kg.

[1] = Stability determination of crystal forms (slurry in ethyl acetate, XRPD); type: physicochemical; settings: 72 hrs
Method: (§1) 100 mg of the compound of Formula I prepared from the method disclosed in Example 1 above (mixed crystal forms) was added into 2 mL of Ethyl Acetate and stirred at room temperature for 72 hrs. After centrifugation and drying, the resulted crystal form was determined by XRPD to be purely the Crystalline Form III.
as §1, with “50 mg” for “100 mg”, “into 1” for “into 2”, “at 50° C.” for “at room temperature”

[2] = system: adenine-induced renal anemic rats; experiment: Efficacy studies in adenine-induced renal anemic rats; type: in vivo, Wistar rats
Method: Six-week-old male Wistar rats were divided to the control group and treatment groups. After given the standard chow for 10 days, the control group continued on the standard chow while the treatment groups were given the standard chow with the addition of 0.75% adenine for 30 days when the treatment groups developed anemia. All the groups were then switched back to the standard chow, and the treatment groups were dosed orally with vehicle or a suspension of one crystal form of the compound in 0.5% CMC-Na at 20, 40 or 80 mg/kg once a day for 4 weeks. Blood samples were obtained from the orbital venous plexus on days 0, 5, 12, 19 and 27. An Automated Hematology Analyzer MEK-6318K was used to determine hematological parameters such as erythrocyte counts (RBC), hemoglobin concentration (HGB), hematocrit value (HCT).

T1 sequence (Q9GZT9 whole entry, species assumed): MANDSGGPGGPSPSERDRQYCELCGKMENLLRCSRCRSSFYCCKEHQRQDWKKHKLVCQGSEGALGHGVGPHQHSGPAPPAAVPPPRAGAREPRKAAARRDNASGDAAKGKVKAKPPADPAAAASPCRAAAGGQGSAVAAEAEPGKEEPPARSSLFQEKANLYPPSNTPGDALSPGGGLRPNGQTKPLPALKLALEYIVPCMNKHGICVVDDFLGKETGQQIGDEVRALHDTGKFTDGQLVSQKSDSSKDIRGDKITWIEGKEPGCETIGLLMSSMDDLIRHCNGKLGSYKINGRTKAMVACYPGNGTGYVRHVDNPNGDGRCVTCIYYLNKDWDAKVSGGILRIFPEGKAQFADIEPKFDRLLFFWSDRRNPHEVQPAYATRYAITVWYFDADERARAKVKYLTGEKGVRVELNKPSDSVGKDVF

| pIC50 (full length PHD2) | SMILES | inducted EPO over that of the vehicle group (Erythropoietin (EPO)) | thermodynamic stability of crystal form ([1]; 50° C.) | thermodynamic stability of crystal form ([1]; room temperature) | HGB ([2]; 20 mg/kg oral once a day, Day 0) | HGB ([2]; 20 mg/kg oral once a day, Day 5) | HGB ([2]; 20 mg/kg oral once a day, Day 12) | HGB ([2]; 20 mg/kg oral once a day, Day 19) | HGB ([2]; 20 mg/kg oral once a day, Day 27) | HGB ([2]; 40 mg/kg oral once a day, Day 0) | HGB ([2]; 40 mg/kg oral once a day, Day 5) | HGB ([2]; 40 mg/kg oral once a day, Day 12) | HGB ([2]; 40 mg/kg oral once a day, Day 19) | HGB ([2]; 40 mg/kg oral once a day, Day 27) | HGB ([2]; 80 mg/kg oral once a day, Day 0) | HGB ([2]; 80 mg/kg oral once a day, Day 5) | HGB ([2]; 80 mg/kg oral once a day, Day 12) | HGB ([2]; 80 mg/kg oral once a day, Day 19) | HGB ([2]; 80 mg/kg oral once a day, Day 27) | effect on HGB levels (in words) ([2]; 20, 40 or 80 mg/kg oral once a day for 4 weeks) |
| --- | --- | --- | --- | --- | --- | --- | --- | --- | --- | --- | --- | --- | --- | --- | --- | --- | --- | --- | --- | --- |
| ~6.82 | Cc1cccc(-c2cccc3c(O)c(C(=O)NCC(=O)O)c(=O)oc23)c1 [compound of Formula I, N-[(4-hydroxy-2-oxo-8-(3-methyl-phenyl)-2H-3-coloralkenyl)carbonyl]glycine] |  |  |  |  |  |  |  |  |  |  |  |  |  |  |  |  |  |  |  |
|  | Cc1cccc(-c2cccc3c(O)c(C(=O)NCC(=O)O)c(=O)oc23)c1 [Crystalline Form III, N-[(4-hydroxy-2-oxo-8-(3-methyl-phenyl)-2H-3-coloralkenyl)carbonyl]glycine] | above 35 folds | thermodynamically the more stable crystal form | thermodynamically the more stable crystal form | 88.0 g/L | 60.7 g/L | 64.3 g/L | 73.3 g/L | 90.7 g/L | 87.4 g/L | 69.4 g/L | 87.2 g/L | 89.7 g/L | 103.6 g/L | 86.8 g/L | 76.7 g/L | 111.0 g/L | 122.0 g/L | 139.0 g/L | improved the HGB levels in the animals and corrected them toward normal |
